Structures are written as SMILES. Where “and” joins values, the source holds several entries; their conditions need not be identical. Identical values can stand only once.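 Results reflect a 48-hour exposure of cells in 96-well plates to compound at five concentrations. GI50: concentration for 50% inhibition of growth. TGI: total growth inhibition.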 A value given as a limit tells only on which side of the number the result lay.

This is an account of results in PubChem BioAssay (NCI).

Among the test systems are HCC-2998 colon; MDA-MB-231 breast; SNB-75 CNS; A498 renal; MDA-MB-435; NCI-H226 lung; HS 578T breast; TK-10 renal; SF-539 CNS; DU-145 prostate.
Common to all, as to assay: inhibition of tumour cell growth, NCI panel, 48 h

On to `COC(=O)[C@@H](C)C[C@H](Cc1ccccc1)NC(=O)c1csc([C@@H](C[C@H](C(C)C)N(C)C(=O)[C@@H](NC(=O)[C@H]2CCCCN2C)C(C)C)OC(C)=O)n1`, for which the GI50 in the assay on HCC-2998 colon was 0.000356 µM and 0.0025 µM; in the assay on MDA-MB-231 breast, 0.000506 µM and 0.0025 µM; in the assay on A498 renal, 0.000176 µM and < 0.0025 µM; with MDA-MB-435, below 0.0001 µM; in the assay on NCI-H226 lung, 0.0025 µM; in the assay with HS 578T breast, 0.000641 µM. The GI50 was 0.0223 µM and 0.0025 µM with TK-10 renal; 0.000294 µM and < 0.0025 µM in the assay with SF-539 CNS. Further, the TGI in the assay on HCC-2998 colon is above 25 µM; in the assay with MDA-MB-231 breast it was 0.0116 µM; in the assay with SNB-75 CNS, above 25 µM; in the assay with A498 renal it was 0.000694 µM and < 0.0025 µM; in the assay with MDA-MB-435 it was 0.000135 µM and < 0.0025 µM; in the assay on NCI-H226 lung, above 25 µM. In addition, the TGI is above 25 µM in the assay on TK-10 renal; 0.00209 µM and < 0.0025 µM in the assay with SF-539 CNS.

With `COC1CC2CCC(C)[C@](O)(O2)C(=O)C(=O)N2CCCCC2C(=O)OC(C(C)CC2CCC(O)C(OC)C2)CC(=O)C(C)C=C(C)C(OC(=O)CN(C)C)C(OC)C(=O)C(C)CC(C)/C=C/C=C/C=C\1C` (stereo not given in full), the TGI in the assay on MDA-MB-231 breast was determined as 20.4 µM; in the assay on DU-145 prostate it was 14.5 µM; with A498 renal, 11.9 µM; in the assay with MDA-MB-435, 19.2 µM; in the assay with NCI-H226 lung, 22.3 µM; in the assay with HS 578T breast, 16.9 µM. Moreover, the values for the TGI in the assay with TK-10 renal and in the assay on SF-539 CNS were 23.8 µM and 12.7 µM, respectively.

For the compound `Cc1ccc2sc3c(NCCCNCCO)nc4ccccc4c3c(=O)c2c1`, the GI50 is 1.64 µM in the assay with HCC-2998 colon; 1.56 µM in the assay on MDA-MB-231 breast; 1.71 µM in the assay with DU-145 prostate; 1.2 µM in the assay on SNB-75 CNS; 1.44 µM in the assay with A498 renal; 1.74 µM in the assay on MDA-MB-435. Further, the figures for the GI50 in the assay with NCI-H226 lung, in the assay on HS 578T breast and in the assay on SF-539 CNS were 1.78 µM, 1.63 µM and 1.68 µM, respectively. Besides, the TGI turned out to be 3.32 µM in the assay on HCC-2998 colon; 3.04 µM in the assay with MDA-MB-231 breast; 3.15 µM in the assay on DU-145 prostate; 2.5 µM in the assay with SNB-75 CNS; 3.49 µM with A498 renal; 3.27 µM with MDA-MB-435. For the same compound, the figures for the TGI in the assay on NCI-H226 lung, in the assay with HS 578T breast and with SF-539 CNS were 3.68 µM, 3.7 µM and 3.08 µM, respectively.

Regarding `CCN(CC)CCOc1cc2c(C(=O)OC)c(C)oc2cc1C(C)=O`, the GI50 was 15.7 µM in the assay on HCC-2998 colon; 10.8 µM in the assay on MDA-MB-231 breast; 53 µM with A498 renal; 16.1 µM in the assay with MDA-MB-435; 11.4 µM with NCI-H226 lung; 13.4 µM in the assay on HS 578T breast. The GI50 in the assay with TK-10 renal is 16.8 µM. Moreover, the TGI is 29.3 µM with HCC-2998 colon; 23.5 µM in the assay with MDA-MB-231 breast; above 100 µM in the assay on A498 renal; 33.9 µM in the assay with MDA-MB-435; 25.2 µM with NCI-H226 lung; 31.4 µM in the assay on HS 578T breast. The compound further displayed a TGI in the assay with TK-10 renal of 31.4 µM.

Regarding `CCOC(=O)c1cc2ncccc2c2ccccc12`, the TGI in the assay with HCC-2998 colon, with MDA-MB-231 breast, with DU-145 prostate, in the assay on SNB-75 CNS, in the assay with MDA-MB-435 and in the assay with NCI-H226 lung was above 100 µM throughout. In addition, the TGI in the assay on HS 578T breast and in the assay on TK-10 renal was above 100 µM in each case.

Regarding `C/C(=C\c1ccn(-c2ccc(N)cc2)n1)[C@@H]1C[C@@H]2O[C@]2(C)CCC[C@H](C)[C@H](O)[C@@H](C)C(=O)C(C)(C)[C@@H](O)CC(=O)O1`, the GI50 in the assay on HCC-2998 colon is 0.0382 µM; with MDA-MB-231 breast it was 0.252 µM; with DU-145 prostate it was 0.0314 µM; with SNB-75 CNS, 0.00754 µM; in the assay on A498 renal, 0.102 µM; with NCI-H226 lung, above 50 µM. For the same compound, the GI50 is 0.0863 µM in the assay on HS 578T breast, 0.124 µM in the assay on TK-10 renal and 0.0702 µM in the assay on SF-539 CNS. The TGI was above 50 µM in the assay with HCC-2998 colon; above 50 µM in the assay with MDA-MB-231 breast; 0.577 µM with DU-145 prostate; 0.233 µM with SNB-75 CNS; 3.66 µM in the assay on A498 renal; above 50 µM with NCI-H226 lung. In addition, the TGI with HS 578T breast was above 21.6 µM; with TK-10 renal, above 50 µM; in the assay on SF-539 CNS, 0.357 µM.

Consider `CCCC(=O)NNc1[nH]c(-c2ccc(OC)cc2)cc1C(=O)OCC`, for which the GI50 in the assay with MDA-MB-231 breast was 16.6 µM; with DU-145 prostate it was 21.7 µM; with SNB-75 CNS, 15.4 µM; in the assay on A498 renal, 35.3 µM; in the assay on MDA-MB-435, 15.6 µM; in the assay on NCI-H226 lung, 16.1 µM. Also, the values for the GI50 in the assay with HS 578T breast, with TK-10 renal and in the assay on SF-539 CNS were 21.7 µM, 15.9 µM and 19.3 µM, respectively. For the same compound, the TGI was 30.2 µM in the assay with MDA-MB-231 breast; 45.6 µM in the assay with DU-145 prostate; 29.4 µM with SNB-75 CNS; above 100 µM in the assay on A498 renal; 31.6 µM in the assay on MDA-MB-435; 30.1 µM with NCI-H226 lung. Moreover, the TGI in the assay on HS 578T breast is 57.9 µM; in the assay with TK-10 renal it was 30.1 µM; with SF-539 CNS, 37 µM.

With `O=C1C=CC2(C=C1)CCN=c1c(O)c3c(c(O)c12)=NC=N3`, the GI50 with HCC-2998 colon was 18.5 µM and > 100 µM; with MDA-MB-231 breast it was 14.4 µM and > 100 µM; with DU-145 prostate, 14.7 µM and > 100 µM; in the assay with SNB-75 CNS, 17.8 µM and > 100 µM; in the assay with A498 renal, 19.2 µM and > 100 µM; with NCI-H226 lung, 19 µM and > 100 µM. Further, the GI50 was 22.7 µM and > 100 µM in the assay with TK-10 renal; 13.8 µM and > 100 µM in the assay with SF-539 CNS. Further, the TGI with HCC-2998 colon was 32.6 µM and > 100 µM; in the assay with MDA-MB-231 breast, 31.8 µM and > 100 µM; in the assay on DU-145 prostate, 28 µM and > 100 µM; in the assay on SNB-75 CNS, 35.2 µM and > 100 µM; with A498 renal, 33.5 µM and > 100 µM; in the assay on NCI-H226 lung, 38.4 µM and > 100 µM. Moreover, the TGI in the assay with HS 578T breast was 71.4 µM and > 100 µM; with TK-10 renal, 38.4 µM and > 100 µM; in the assay with SF-539 CNS, 26.9 µM and > 100 µM.

Turning to `CN1CCN(Cc2ccc(Nc3ncc(Cl)c(Nc4ccccc4S(=O)(=O)N(C)C)n3)cc2)CC1`, the GI50 in the assay with MDA-MB-231 breast is 0.0222 µM; with DU-145 prostate, 0.0516 µM; with SNB-75 CNS, 0.0948 µM; with A498 renal, 0.114 µM; in the assay on MDA-MB-435, 0.0274 µM; in the assay on NCI-H226 lung it was 0.0915 µM. The GI50 is 0.0984 µM in the assay on HS 578T breast, 0.0819 µM with TK-10 renal and 0.114 µM in the assay on SF-539 CNS. In addition, the TGI with MDA-MB-231 breast is 0.376 µM; with DU-145 prostate it was above 100 µM; in the assay on SNB-75 CNS, 0.308 µM; in the assay with A498 renal it was 0.327 µM; in the assay on MDA-MB-435, 0.429 µM; with NCI-H226 lung, 0.859 µM. Further, the figures for the TGI in the assay on HS 578T breast, in the assay with TK-10 renal and in the assay on SF-539 CNS were 1.18 µM, 1.19 µM and 0.343 µM, respectively.
